Data: patent publication US20200239530A1, “COMPOUNDS AND METHODS OF MODULATING PROTEIN DEGRADATION” (Vividion Therapeutics, Inc., priority 2017, published 2020)

Target: Q9NXR7 (Homo sapiens, UniProt Q9NXR7)
Assay: Competitive cysteine profiling, probe competition (Table 2B)
Format: binding
Design: endogenous in cells
Conditions: read-out: KB02_500 uM_percent_inhibition
Description: The following 96-well sample prep protocol was used for sample preparation.

COc1ccc2c(c1)CCCN2C(=O)CCl [KB02]
inhibition at 500 µM: 50%
